Data as given in publication PMC11064044, “Synthesis and Characterization of Piano-Stool Ruthenium(II)–Arene Complexes of Isatin Schiff Bases: Cytotoxicity and DNA Intercalation” (ACS Omega, 2024).

Experiments:
[1] = test system: PC-3 (human prostate cancer); test: MTT cell viability assay, PC-3; assay type: cell-based; details: 72 h
Procedure: (§1) HEPG2 (ATCC-HB-8065), MCF-7 (ATCC-CRL-3435), PC-3 (ATCC-CRL-1435), and HEK-293 (ATCC-CRL-1573) cells were purchased from American Type Culture Collection (ATCC). Human cancer cells and embryonic kidney cells were maintained in Roswell Park Memorial Institute (RPMI) media supplemented with 10% fetal bovine serum and 1% penicillin–streptomycin solution in a 37 °C incubator with 5% CO2.
(§2) The cell viability was assessed by using an MTT assay. MTT was purchased from Sigma and prepared in phosphate-buffered saline (5 mM). […] After incubation, 20 μL of MTT solution was added to each well and incubated at 37 °C for an additional 4h. Finally, the MTT solution was removed, and 200 μL of DMSO was added to each well. The absorbance was measured at 590 nm by using a spectrometer (Tecan). The IC50 values were calculated from the MTT viability data using the software CalcuSyn (Biosoft).

[2] = test system: HEPG2 (hepatocellular carcinoma); test: MTT cell viability assay, HEPG2; assay type: cell-based, human
Procedure: as §1, §2

[3] = test system: HEK-293 (human embryonic kidney); test: MTT cell viability assay, HEK-293; assay type: cell-based
Procedure: as §1, §2

[4] = test system: MCF-7 (human breast cancer); test: MTT cell viability assay, MCF-7; assay type: cell-based
Procedure: as §1, §2

| IC50 ([1]; Homo sapiens) | IC50 ([2]; Homo sapiens, HepG2, 72 h) | IC50 ([4]; Homo sapiens, MCF7, 72 h) | Structure (SMILES) | IC50 ([3]; Homo sapiens, HEK293, 72 h) | IC50 [1] | IC50 ([2]; 72 h) | IC50 ([3]; 72 h) | IC50 ([4]; 72 h) |
| --- | --- | --- | --- | --- | --- | --- | --- | --- |
| 58.4 ± 2 µM | 3.9 ± 0.3 µM | 27.2 ± 2.4 µM | CCCCN1C(=O)/C(=N/c2c(C)cc(C)cc2C)c2ccccc21 [3c] | 26.9 ± 1.6 µM | – | – | – | – |
| 58.1 ± 3.3 µM | 43 ± 1.8 µM | 52.6 ± 3.1 µM | CCCCN1C(=O)/C(=N/c2ccccc2)c2ccccc21 [3b] | 61.9 ± 0.6 µM | – | – | – | – |
| – | – | – | N.N.[Cl][Pt][Cl] [cisplatin, reference compound] | – | 18.5 ± 0.7 µM | 22.2 ± 0.5 µM | 10.7 ± 0.8 µM | 20.8 ± 2.3 µM |

| Structure (SMILES) | IC50 ([1]; Homo sapiens) | IC50 ([2]; Homo sapiens, HepG2, 72 h) | IC50 ([4]; Homo sapiens, MCF7, 72 h) | IC50 ([3]; Homo sapiens, HEK293, 72 h) | IC50 [1] | IC50 ([2]; 72 h) | IC50 ([3]; 72 h) | IC50 ([4]; 72 h) |
| --- | --- | --- | --- | --- | --- | --- | --- | --- |
| CCCCN1C(=O)C(=O)c2ccccc21 [compound 2, N-butylisatin] | 58.2 ± 3.2 µM | 226.5 ± 1.5 µM | 100 ± 2.4 µM | 127 ± 2.8 µM | – | – | – | – |
